Laboratory results as given in PubChem BioAssay (NCI).
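Grown in 96-well plates, cells were treated for 48 hours with each compound at five concentrations. Insufficient inhibition: endpoint recorded as highest concentration tested. GI50: concentration for 50% inhibition of growth. TGI: concentration producing complete growth inhibition.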

Columns and labels:
Test in all cases: NCI-60 cell line screen, 48 h
[1] = system: K-562 leukemia
[2] = system: NCI-H23 lung
[3] = system: U251 CNS
[4] = system: SR leukemia
[5] = system: A498 renal
[6] = system: MCF7 breast
[7] = system: SF-539 CNS
[8] = system: 786-0 renal
[9] = system: NCI-H226 lung
[10] = system: MDA-MB-435
[11] = system: IGROV1 ovarian
[12] = system: HOP-92 NSCLC
[13] = system: SK-OV-3 ovarian
[14] = system: OVCAR-8 ovarian
[15] = system: HCC-2998 colon
[16] = system: RXF 393 renal
[17] = system: HT29 colon
[18] = system: SNB-75 CNS
[19] = system: NCI-H460 lung
[20] = system: NCI-H522 lung
[21] = system: COLO 205 colon
[22] = system: HCT-15 colon
[23] = system: A549 NSCLC
[24] = system: HS 578T breast
[25] = system: OVCAR-5 ovarian
[26] = system: HL-60(TB) leukemia
[27] = system: CAKI-1 renal
[28] = system: SK-MEL-5 melanoma
[29] = system: BT-549 breast
[30] = system: UACC-257 melanoma
[31] = system: MALME-3M melanoma
[32] = system: UO-31 renal
[33] = system: T-47D breast
[34] = system: TK-10 renal
[35] = system: M14 melanoma
[36] = system: SK-MEL-28 melanoma
[37] = system: KM12 colon
[38] = system: SF-295 CNS
[39] = system: SNB-19 CNS
[40] = system: CCRF-CEM leukemia
[41] = system: EKVX NSCLC
[42] = system: SW-620 colon
[43] = system: HOP-62 NSCLC
[44] = system: MOLT-4 leukemia
[45] = system: ACHN renal
[46] = system: LOX IMVI melanoma
[47] = system: NCI/ADR-RES ovarian
[48] = system: SK-MEL-2 melanoma
[49] = system: DU-145 prostate
[50] = system: UACC-62 melanoma
[51] = system: RPMI-8226 leukemia
[52] = system: OVCAR-3 ovarian
[53] = system: SF-268 CNS
[54] = system: HCT-116 colon
[55] = system: SN12C renal
[56] = system: OVCAR-4 ovarian
[57] = system: MDA-MB-231 breast

SMILES: O=S(=O)(NCCCNc1nccc(-c2c(-c3ccc(F)c(O)c3)nc3sccn23)n1)c1ccc(F)cc1
- GI50 [1]: 1.98 µM
- TGI [1]: > 100 µM
- GI50 [2]: 2.31 µM
- TGI [2]: 7.39 µM
- GI50 [3]: 3.47 µM
- TGI [3]: > 100 µM
- GI50 [4]: 2.13 µM
- TGI [4]: > 100 µM
- GI50 [5]: 2.86 µM
- TGI [5]: 6.81 µM
- GI50 [6]: 2.39 µM
- TGI [6]: 7.76 µM
- GI50 [7]: 3.5 µM
- TGI [7]: 17.4 µM
- GI50 [8]: 3.35 µM
- TGI [8]: > 100 µM
- GI50 [9]: 2.38 µM
- TGI [9]: 6.98 µM
- GI50 [10]: 0.636 µM
- TGI [10]: 3.35 µM
- GI50 [11]: 1.51 µM
- TGI [11]: 5.88 µM
- GI50 [12]: 1.46 µM
- TGI [12]: 6.24 µM
- GI50 [13]: 2.22 µM
- TGI [13]: 7.01 µM
- GI50 [14]: 2.3 µM
- TGI [14]: > 100 µM
- GI50 [15]: 2.86 µM
- TGI [15]: 7.17 µM
- GI50 [16]: 1.53 µM
- TGI [16]: 4.68 µM
- GI50 [17]: 2.94 µM
- TGI [17]: 37.8 µM
- GI50 [18]: 2.02 µM
- TGI [18]: 8.38 µM
- GI50 [19]: 2.37 µM
- TGI [19]: 6.35 µM
- GI50 [20]: 1.93 µM
- TGI [20]: 6.04 µM
- GI50 [21]: 1.48 µM
- TGI [21]: 9.67 µM
- GI50 [22]: 2.42 µM
- TGI [22]: 10.8 µM
- GI50 [23]: 3.02 µM
- TGI [23]: 47.1 µM
- GI50 [24]: 2.62 µM
- TGI [24]: 7.07 µM
- GI50 [25]: 3.41 µM
- TGI [25]: > 100 µM
- GI50 [26]: 1.86 µM
- TGI [26]: 5.26 µM
- GI50 [27]: 3.57 µM
- TGI [27]: > 100 µM
- GI50 [28]: 1.42 µM
- TGI [28]: 2.8 µM
- GI50 [29]: 1.84 µM
- TGI [29]: 7.14 µM
- GI50 [30]: 0.262 µM
- TGI [30]: 2.19 µM
- GI50 [31]: 0.0316 µM
- TGI [31]: 1.01 µM
- GI50 [32]: 2.96 µM
- TGI [32]: 7.77 µM
- GI50 [33]: 2.24 µM
- TGI [33]: 6.21 µM
- GI50 [34]: 4.33 µM
- TGI [34]: 86.3 µM
- GI50 [35]: 0.0481 µM
- TGI [35]: 3.14 µM
- GI50 [36]: 0.104 µM
- TGI [36]: > 100 µM
- GI50 [37]: 2.67 µM
- TGI [37]: 8.36 µM
- GI50 [38]: 2.19 µM
- TGI [38]: 5.27 µM
- GI50 [39]: 3.33 µM
- TGI [39]: > 100 µM
- GI50 [40]: 1.58 µM
- TGI [40]: 6.07 µM
- GI50 [41]: 3.1 µM
- TGI [41]: 14.9 µM
- GI50 [42]: 3.9 µM
- TGI [42]: > 100 µM
- GI50 [43]: 2.78 µM
- TGI [43]: 8.7 µM
- GI50 [44]: 1.73 µM
- TGI [44]: 5.57 µM
- GI50 [45]: 2.24 µM
- TGI [45]: 8.86 µM
- GI50 [46]: 0.578 µM
- TGI [46]: 5.53 µM
- GI50 [47]: 3.44 µM
- TGI [47]: 28 µM
- GI50 [48]: 0.717 µM
- TGI [48]: 3.01 µM

SMILES: Cc1c2c(cc[n+]1Cc1ccccc1)c1ccc(OCc3ccccc3)cc1n2Cc1ccccc1
- GI50 [13]: 1.11 µM
- TGI [13]: 2.36 µM
- GI50 [49]: 0.499 µM
- TGI [49]: 1.74 µM
- GI50 [22]: 2.01 µM
- TGI [22]: 4.64 µM
- GI50 [25]: 0.984 µM
- TGI [25]: 2.21 µM
- GI50 [26]: 0.202 µM
- TGI [26]: 0.47 µM
- GI50 [27]: 1.67 µM
- TGI [27]: 3.67 µM
- GI50 [28]: 0.182 µM
- TGI [28]: 0.366 µM
- GI50 [50]: 0.286 µM
- TGI [50]: 1.21 µM
- GI50 [30]: 0.245 µM
- TGI [30]: 0.789 µM
- GI50 [36]: 0.515 µM
- TGI [36]: 1.86 µM
- GI50 [40]: 0.336 µM
- TGI [40]: 2.09 µM
- GI50 [45]: 1.51 µM
- TGI [45]: 2.84 µM
- GI50 [47]: 5.78 µM
- TGI [47]: > 69.3 µM
- GI50 [51]: 0.231 µM
- TGI [51]: 1.95 µM

SMILES: CC(=O)[C@@H]1C/C(=C\OCc2ccccc2)O[C@H]1C
- TGI [52]: > 100 µM
- TGI [1]: > 100 µM
- TGI [2]: > 100 µM
- TGI [3]: > 100 µM
- TGI [5]: > 100 µM
- TGI [7]: > 100 µM
- TGI [8]: > 100 µM
- TGI [9]: > 100 µM
- TGI [10]: > 100 µM
- TGI [11]: > 100 µM
- TGI [12]: > 100 µM
- TGI [13]: > 100 µM
- TGI [14]: > 100 µM
- TGI [16]: > 100 µM
- TGI [49]: > 100 µM
- TGI [53]: > 100 µM
- TGI [17]: > 100 µM
- TGI [18]: > 100 µM
- TGI [19]: > 100 µM
- TGI [20]: > 100 µM
- TGI [21]: > 100 µM
- TGI [22]: > 100 µM
- TGI [23]: > 100 µM
- TGI [54]: > 100 µM
- TGI [55]: > 100 µM
- TGI [25]: > 100 µM
- TGI [27]: > 100 µM
- TGI [28]: > 100 µM
- TGI [29]: > 100 µM
- TGI [30]: > 100 µM
- TGI [31]: > 100 µM
- TGI [32]: > 100 µM
- TGI [33]: > 100 µM
- TGI [56]: > 100 µM
- TGI [34]: > 100 µM
- TGI [57]: > 100 µM
- TGI [35]: > 100 µM
- TGI [36]: > 100 µM
- TGI [37]: > 100 µM
- TGI [38]: > 100 µM
- TGI [39]: > 100 µM
- TGI [41]: > 100 µM
- TGI [42]: > 100 µM
- TGI [43]: > 100 µM
- TGI [44]: > 100 µM
- TGI [45]: > 100 µM
- TGI [46]: > 100 µM
- TGI [47]: > 100 µM
- TGI [51]: > 100 µM
